This is an account of results in PubChem BioAssay AID330 (DTP/NCI, 2004).

Structures are written as SMILES. Several values for one entry are separate records, joined by “and”; a condition that tells them apart may be missing. Equal entries are not always repeated. Toxic doses and inconclusive results are not listed.

The test deals with P388 leukemia ip, CD2F1 mice, survival T/C. Put plainly: NCI In Vivo Anticancer Drug Screen. Data for tumor model P388 Leukemia (intraperitoneal) in CD2F1 (CDF1) mice. Particulars: endpoint: median survival time, higher = longer survival. The method in brief:
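Mice carrying the transplanted tumor received test compound or vehicle. Survival was recorded in each group, and the value is the treated-group measurement divided by that of the vehicle-treated control group.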

The mark [1] stands for this setting: dose: 50.0 mg/kg/injection, schedule: Q01DX009 (ip), vehicle: Klucel (hydroxypropylcellulose) (HPC).
Where [2] appears, read: dose: 50.0 mg/kg/injection, schedule: Q01DX009 (ip), vehicle: saline with Tween-80.
Setting [3] is: dose: 60.0 mg/kg/injection, schedule: Q01DX005 (ip), vehicle: Klucel (hydroxypropylcellulose) (HPC).
Setting [4] is: dose: 120.0 mg/kg/injection, schedule: Q01DX005 (ip), vehicle: Klucel (hydroxypropylcellulose) (HPC).
[5] abbreviates: dose: 240.0 mg/kg/injection, schedule: Q01DX005 (ip), vehicle: Klucel (hydroxypropylcellulose) (HPC).
Setting [6] is: dose: 50.0 mg/kg/injection, schedule: Q01DX009 (ip), vehicle: saline.
Where [7] appears, read: dose: 12.5 mg/kg/injection, schedule: Q01DX009 (ip), vehicle: saline.

As for `C/C(=N\N)C1=NNC(C)(C)NN1`, the T/C under setting [1] is 96 % of control; the T/C (dose: 100.0 mg/kg/injection, schedule: Q01DX009 (ip), vehicle: Klucel (hydroxypropylcellulose) (HPC)) was 96 % of control; the T/C (dose: 200.0 mg/kg/injection, schedule: Q01DX009 (ip), vehicle: Klucel (hydroxypropylcellulose) (HPC)) is 98 % of control.

Consider `NC(C[P+](=O)O)C(=O)O` (configuration not stated), for which the T/C (dose: 18.75 mg/kg/injection, schedule: Q01DX005 (ip), vehicle: water) is 103 % of control; the T/C (dose: 37.5 mg/kg/injection, schedule: Q01DX005 (ip), vehicle: water) is 111 % of control; the T/C (dose: 75.0 mg/kg/injection, schedule: Q01DX005 (ip), vehicle: water) is 91 % of control; the T/C (dose: 150.0 mg/kg/injection, schedule: Q01DX005 (ip), vehicle: water) is 87 % of control.

Take `COC(=O)CC1(C(=O)OC)c2sc(-c3ccccc3OC)cc2N2CCCC21` (configuration not stated): the T/C is, setting by setting: (dose: 0.63 mg/kg/injection, schedule: Q01DX009 (ip), vehicle: Klucel (hydroxypropylcellulose) (HPC)) 106 % of control; (dose: 1.25 mg/kg/injection, schedule: Q01DX009 (ip), vehicle: Klucel (hydroxypropylcellulose) (HPC)) 102 % of control; (dose: 2.5 mg/kg/injection, schedule: Q01DX009 (ip), vehicle: Klucel (hydroxypropylcellulose) (HPC)) 102 % of control; (dose: 5.0 mg/kg/injection, schedule: Q01DX009 (ip), vehicle: Klucel (hydroxypropylcellulose) (HPC)) 100 % of control; (dose: 10.0 mg/kg/injection, schedule: Q01DX009 (ip), vehicle: Klucel (hydroxypropylcellulose) (HPC)) 105 % of control.

Regarding `CC1=CC(=O)C=CC1(C)C(Cl)(Cl)Cl` (configuration not stated), the T/C is, setting by setting: under setting [2], 110 % of control; (dose: 100.0 mg/kg/injection, schedule: Q01DX009 (ip), vehicle: saline with Tween-80) 110 % of control; (dose: 200.0 mg/kg/injection, schedule: Q01DX009 (ip), vehicle: saline with Tween-80) 105 % of control.

For `COc1ccc(C(=O)/C=C/c2ccc3c(c2)OCO3)c(OCc2ccccc2)c1`, the T/C was 98 % of control (dose: 3.75 mg/kg/injection, schedule: Q01DX009 (ip), vehicle: Klucel (hydroxypropylcellulose) (HPC)); 99 % of control (dose: 7.5 mg/kg/injection, schedule: Q01DX009 (ip), vehicle: Klucel (hydroxypropylcellulose) (HPC)); 98 % of control (dose: 15.0 mg/kg/injection, schedule: Q01DX009 (ip), vehicle: Klucel (hydroxypropylcellulose) (HPC)); 94 % of control (dose: 30.0 mg/kg/injection, schedule: Q01DX009 (ip), vehicle: Klucel (hydroxypropylcellulose) (HPC)).

As to `N=c1nc2ccc3ccccc3c2nn1-c1ccc([N+](=O)[O-])cc1`, the T/C by setting is: (dose: 1.5 mg/kg/injection, schedule: Q01DX009 (ip), vehicle: Klucel (hydroxypropylcellulose) (HPC)) 108 % of control; (dose: 3.0 mg/kg/injection, schedule: Q01DX009 (ip), vehicle: Klucel (hydroxypropylcellulose) (HPC)) 106 % of control; (dose: 6.0 mg/kg/injection, schedule: Q01DX009 (ip), vehicle: Klucel (hydroxypropylcellulose) (HPC)) 108 % of control; (dose: 12.5 mg/kg/injection, schedule: Q01DX009 (ip), vehicle: Klucel (hydroxypropylcellulose) (HPC)) 103 % of control; (dose: 25.0 mg/kg/injection, schedule: Q01DX009 (ip), vehicle: Klucel (hydroxypropylcellulose) (HPC)) 108 % of control; under setting [1], 119 % of control.

With `CCOc1c(N=Nc2ccc(Br)cc2)c(C)nn1C(=S)SC`, the T/C was 93 % of control under setting [3], 92 % of control under setting [4] and 98 % of control under setting [5].

`C=CCCCCCCCCCC(=O)C=C`: the T/C by setting is: (dose: 2.75 mg/kg/injection, schedule: Q01DX005 (ip), vehicle: Klucel (hydroxypropylcellulose) (HPC)) 98 % of control; (dose: 5.5 mg/kg/injection, schedule: Q01DX005 (ip), vehicle: Klucel (hydroxypropylcellulose) (HPC)) 99 % of control; (dose: 11.0 mg/kg/injection, schedule: Q01DX005 (ip), vehicle: Klucel (hydroxypropylcellulose) (HPC)) 92 % of control; (dose: 22.0 mg/kg/injection, schedule: Q01DX005 (ip), vehicle: Klucel (hydroxypropylcellulose) (HPC)) 92 % of control; (dose: 44.0 mg/kg/injection, schedule: Q01DX005 (ip), vehicle: Klucel (hydroxypropylcellulose) (HPC)) 91 % of control.

As for `Cn1c2ccccc2c2[nH]c3ccccc3c(=O)c21`, the T/C is 108 % of control and 97 % of control (dose: 50.0 mg/kg/injection, schedule: Q01DX005 (ip), vehicle: Klucel (hydroxypropylcellulose) (HPC)); 95 % of control (dose: 100.0 mg/kg/injection, schedule: Q01DX005 (ip), vehicle: Klucel (hydroxypropylcellulose) (HPC)); 90 % of control and 96 % of control (dose: 200.0 mg/kg/injection, schedule: Q01DX005 (ip), vehicle: Klucel (hydroxypropylcellulose) (HPC)).

On to `Cc1ccc(C(=Nc2ccccc2)N=P(c2ccccc2)(c2ccccc2)c2ccccc2)cc1`, for which the T/C runs as follows: (dose: 25.0 mg/kg/injection, schedule: Q01DX005 (ip), vehicle: saline with Tween-80) 103 % of control; (dose: 50.0 mg/kg/injection, schedule: Q01DX005 (ip), vehicle: saline with Tween-80) 113 % of control and 122 % of control; (dose: 100.0 mg/kg/injection, schedule: Q01DX005 (ip), vehicle: saline with Tween-80) 120 % of control.

As to `CCN(CC)Cc1cc(Nc2c3ccccc3nc3cc(Cl)ccc23)ccc1O`, the T/C (dose: 33.0 mg/kg/injection, schedule: Q01DX009 (ip), vehicle: saline) was 100 % of control; the T/C under setting [6] was 109 % of control; the T/C (dose: 75.0 mg/kg/injection, schedule: Q01DX009 (ip), vehicle: saline) is 122 % of control.

In the case of `CCCOc1ccc(-c2nc(-c3ccc(N=Cc4ccc(N(CCOS(C)(=O)=O)CCOS(C)(=O)=O)cc4C)cc3)cs2)cc1`, the T/C by setting is: (dose: 3.12 mg/kg/injection, schedule: Q01DX009 (ip), vehicle: saline with Tween-80) 160 % of control; (dose: 6.25 mg/kg/injection, schedule: Q01DX009 (ip), vehicle: saline with Tween-80) 180 % of control; (dose: 12.5 mg/kg/injection, schedule: Q01DX009 (ip), vehicle: saline with Tween-80) 156 % of control and 166 % of control and 197 % of control; (dose: 25.0 mg/kg/injection, schedule: Q01DX009 (ip), vehicle: saline with Tween-80) 164 % of control; under setting [2], 110 % of control and 118 % of control.

`CCCCCCCC(=O)Nc1cc2c3c(c1)CCCN3CCC2`: the T/C is 100 % of control (dose: 50.0 mg/kg/injection, schedule: Q01DX001 (ip), vehicle: saline with Tween-80); 95 % of control (dose: 100.0 mg/kg/injection, schedule: Q01DX001 (ip), vehicle: saline with Tween-80); 90 % of control (dose: 200.0 mg/kg/injection, schedule: Q01DX001 (ip), vehicle: saline with Tween-80).

Turning to `CCCC/C(C)=N/NC(=S)SC`, the T/C is, setting by setting: (dose: 3.12 mg/kg/injection, schedule: Q01DX009 (ip), vehicle: saline) 100 % of control; (dose: 6.25 mg/kg/injection, schedule: Q01DX009 (ip), vehicle: saline) 106 % of control; under setting [7], 100 % of control.

Regarding `O=c1c2ccccc2sc2c1c(N(CCO)CCO)cc1ccccc12`, the T/C was 102 % of control (dose: 25.0 mg/kg/injection, schedule: Q01DX005 (ip), vehicle: distilled water + Tween-80); 97 % of control (dose: 50.0 mg/kg/injection, schedule: Q01DX005 (ip), vehicle: distilled water + Tween-80); 92 % of control (dose: 100.0 mg/kg/injection, schedule: Q01DX005 (ip), vehicle: distilled water + Tween-80).

For the molecule `CCC(=O)Oc1ccc(/C=N/NC(N)=S)nc1`, the T/C is 166 % of control under setting [7]; 157 % of control (dose: 25.0 mg/kg/injection, schedule: Q01DX009 (ip), vehicle: saline); 158 % of control and 164 % of control under setting [6].

`CSC(=N)c1cccc(OCCOc2ccccc2)c1`: the T/C is 96 % of control (dose: 15.0 mg/kg/injection, schedule: Q01DX005 (ip), vehicle: Klucel (hydroxypropylcellulose) (HPC)); 98 % of control (dose: 30.0 mg/kg/injection, schedule: Q01DX005 (ip), vehicle: Klucel (hydroxypropylcellulose) (HPC)); 91 % of control under setting [3]; 93 % of control (dose: 60.0 mg/kg/injection, schedule: Q01DX005 (ip), vehicle: saline with Tween-80); 86 % of control under setting [4]; 101 % of control (dose: 120.0 mg/kg/injection, schedule: Q01DX005 (ip), vehicle: saline with Tween-80). Also, the T/C under setting [5] is 91 % of control and the T/C (dose: 240.0 mg/kg/injection, schedule: Q01DX005 (ip), vehicle: saline with Tween-80) was 99 % of control.
